From patent publication US8697687B2, “Treating diseases mediated by blockade of the epithelial sodium channel with pyrazine-2-carboxamide derivatives” (Novartis AG, priority 2007, dated 2014) come the findings set out here.

The assay deals with T1, epithelial sodium channel (ENaC) (Homo sapiens, UniProt P37088+P51168+P51170).
T1 construct: host or cells: primary Human Bronchial Epithelial cells (HBECs), air-liquid interface culture
T1 sequence (P37088 1-669): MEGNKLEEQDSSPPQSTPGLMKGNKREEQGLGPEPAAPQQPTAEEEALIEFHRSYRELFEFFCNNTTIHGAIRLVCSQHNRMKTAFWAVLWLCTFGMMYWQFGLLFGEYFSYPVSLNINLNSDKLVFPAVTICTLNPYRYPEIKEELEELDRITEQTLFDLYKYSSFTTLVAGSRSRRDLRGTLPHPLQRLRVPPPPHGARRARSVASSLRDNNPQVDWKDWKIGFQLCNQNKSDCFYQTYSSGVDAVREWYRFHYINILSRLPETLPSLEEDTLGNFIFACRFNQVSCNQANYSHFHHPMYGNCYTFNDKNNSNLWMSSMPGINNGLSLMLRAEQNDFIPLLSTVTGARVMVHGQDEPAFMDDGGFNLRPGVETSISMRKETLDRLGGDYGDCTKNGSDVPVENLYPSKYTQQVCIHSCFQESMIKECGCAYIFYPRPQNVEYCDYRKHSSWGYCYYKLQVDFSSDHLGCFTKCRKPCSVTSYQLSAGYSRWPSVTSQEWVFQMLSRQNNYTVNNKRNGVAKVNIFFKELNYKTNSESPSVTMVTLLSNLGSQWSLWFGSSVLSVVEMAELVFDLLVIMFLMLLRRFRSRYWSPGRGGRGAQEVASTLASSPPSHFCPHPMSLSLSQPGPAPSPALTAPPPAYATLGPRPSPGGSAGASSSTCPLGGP
T1 sequence (P51168 1-640): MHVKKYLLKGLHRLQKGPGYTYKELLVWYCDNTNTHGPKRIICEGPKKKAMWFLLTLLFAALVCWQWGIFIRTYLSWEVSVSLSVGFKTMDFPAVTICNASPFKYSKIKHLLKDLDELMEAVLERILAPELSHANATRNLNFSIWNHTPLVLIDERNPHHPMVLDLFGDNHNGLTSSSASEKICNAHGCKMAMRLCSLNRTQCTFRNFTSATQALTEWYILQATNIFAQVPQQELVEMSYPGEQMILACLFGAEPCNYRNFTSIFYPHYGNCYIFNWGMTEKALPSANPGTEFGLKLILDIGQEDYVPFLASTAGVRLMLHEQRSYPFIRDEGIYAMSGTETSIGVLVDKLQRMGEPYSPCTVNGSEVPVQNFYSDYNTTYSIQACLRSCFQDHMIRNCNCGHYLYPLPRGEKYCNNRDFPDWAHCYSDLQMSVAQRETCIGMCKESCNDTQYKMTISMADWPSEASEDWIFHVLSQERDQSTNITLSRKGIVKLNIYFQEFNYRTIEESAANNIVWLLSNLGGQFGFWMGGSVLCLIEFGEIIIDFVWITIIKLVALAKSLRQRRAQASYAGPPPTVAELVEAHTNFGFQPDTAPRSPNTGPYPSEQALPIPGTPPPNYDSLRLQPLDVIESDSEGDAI
T1 sequence (P51170 1-649): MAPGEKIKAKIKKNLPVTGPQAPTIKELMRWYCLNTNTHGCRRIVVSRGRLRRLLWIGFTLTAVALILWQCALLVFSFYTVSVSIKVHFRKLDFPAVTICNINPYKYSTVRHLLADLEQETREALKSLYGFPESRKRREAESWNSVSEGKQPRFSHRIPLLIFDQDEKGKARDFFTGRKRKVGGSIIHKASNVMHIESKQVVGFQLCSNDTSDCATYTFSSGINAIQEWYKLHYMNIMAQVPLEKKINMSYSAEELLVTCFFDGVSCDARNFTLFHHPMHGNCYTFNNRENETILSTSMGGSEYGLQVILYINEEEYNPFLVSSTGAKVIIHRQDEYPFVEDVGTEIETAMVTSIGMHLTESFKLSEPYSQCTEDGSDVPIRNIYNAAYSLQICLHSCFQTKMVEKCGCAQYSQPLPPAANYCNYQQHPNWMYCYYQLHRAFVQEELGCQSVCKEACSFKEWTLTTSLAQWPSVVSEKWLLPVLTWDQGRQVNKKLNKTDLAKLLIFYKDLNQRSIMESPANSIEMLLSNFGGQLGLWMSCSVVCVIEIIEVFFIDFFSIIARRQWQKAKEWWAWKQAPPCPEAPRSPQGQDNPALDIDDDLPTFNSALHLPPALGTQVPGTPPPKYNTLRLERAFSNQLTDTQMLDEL
Nature of the assay: Short circuit current (ISC) measurements in Human Bronchial Epithelial cells, inhibition of amiloride-sensitive ISC. Type of assay: cell-based. Particulars: inhibition of the amiloride-sensitive ISC; Human Bronchial Epithelial cells (HBECs) at air-liquid interface; compound added to apical chamber; read-out: IC50. The method in brief:
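Well-differentiated air-liquid interface HBECs (days 7–21) in Ussing chambers, Ringer pH 7.4, 37° C, voltage clamped at 0 mV. Cumulative 3-fold apical compound additions, then 10 μM amiloride to define total amiloride-sensitive ISC. IC50 from mean % inhibition, typically duplicate inserts.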

By IC50 is commonly meant the midpoint of a concentration-inhibition curve. For `CC(C)NC(=O)Nc1ccc(C(=O)N2CCC3(CC2)CN/C(=N\C(=O)c2nc(Cl)c(N)nc2N)N3)cn1` [Example 65, 3,5-Diamino-6-chloro-pyrazine-2-carboxylic acid [8-[6-(3-isopropyl-ureido)-pyridine-3-carbonyl]-1,3,8-triaza-spiro[4.5]dec-(2E)-ylidene]-amide], the IC50 came out at 39.5 nM.
`CC(C)(C)OC(=O)COc1ccc(CCC(=O)N2CCC3(CC2)CN/C(=N\C(=O)c2nc(Cl)c(N)nc2N)N3)cc1` [Example 71, [4-(3-{2-[(E)-3,5-Diamino-6-chloro-pyrazine-2-carbonylimino]-1,3,8-triaza-spiro[4.5]dec-8-yl}-3-oxo-propyl)-phenoxy]-acetic acid tert-butyl]: the IC50 is 42 nM.
With `CCN(CC)C(=O)Cn1ccc2c(C(=O)N3CCC4(CC3)CN/C(=N\C(=O)c3nc(Cl)c(N)nc3N)N4)cccc21` [Example 91, 3,5-Diamino-6-chloro-pyrazine-2-carboxylic acid [8-(1-diethylcarbamoylmethyl-1H-indole-4-carbonyl)-1,3,8-triaza-spiro[4.5]dec-(2E)-ylidene]-amide], the half-maximal inhibitory concentration (IC50) was determined as 88.5 nM.
`Nc1nc(N)c(C(=O)/N=C2\NCC3(CCN(C(=O)Cc4nnc(-c5ccccc5)[nH]4)CC3)N2)nc1Cl` [Example 42, 3,5-Diamino-6-chloro-pyrazine-2-carboxylic acid [8-[2-(5-phenyl-4H-[1,2,4]triazol-3-yl)-acetyl]-1,3,8-triaza-spiro[4.5]dec-(2E)-ylidene]-amide]: the IC50 came to 11 nM.
